According to PubChem BioAssay AID2060910 (Molecular Pharmacology Branch, DTP, NCI, 2025):

Test system: 242566-281-R-J2-PDC complex spheroid viability
Experiment: Anticancer human tumor 242566-281-R-J2-PDC patient-derived pancreatic carcinoma cell line growth inhibition [RAS]
Conditions: for IC50: curve of first compound; for viability, T/C: stronger effect = lower value; active = viability on the fitted dose curve at most 10% of control; inactive = the rest
How it was run: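 Tumour cells grown as complex spheroids with HUVEC endothelial cells and mesenchymal stem cells, treated with RAS pathway inhibitor combinations. Each agent spans half-log steps from near clinical Cmax, or 10 microM where Cmax is unknown.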

[1] = second compound 0.000949 µM, first compound 0.0316 µM
[2] = second compound 0.000949 µM, first compound 0.1 µM
[3] = second compound 0.000949 µM, first compound 0.316 µM
[4] = second compound 0.000949 µM, first compound 1 µM
[5] = second compound 0.000949 µM, first compound 3.16 µM
[6] = second compound 0.000949 µM, first compound 10 µM
[7] = second compound 0.003 µM, first compound 0.0316 µM
[8] = second compound 0.003 µM, first compound 0.1 µM
[9] = second compound 0.003 µM, first compound 0.316 µM
[10] = second compound 0.003 µM, first compound 1 µM
[11] = second compound 0.003 µM, first compound 3.16 µM
[12] = second compound 0.003 µM, first compound 10 µM
[13] = second compound 0.00949 µM, first compound 0.0316 µM
[14] = second compound 0.00949 µM, first compound 0.1 µM
[15] = second compound 0.00949 µM, first compound 0.316 µM
[16] = second compound 0.00949 µM, first compound 1 µM
[17] = second compound 0.00949 µM, first compound 3.16 µM
[18] = second compound 0.00949 µM, first compound 10 µM
[19] = second compound 0.03 µM, first compound 0.0316 µM
[20] = second compound 0.03 µM, first compound 0.1 µM
[21] = second compound 0.03 µM, first compound 0.316 µM
[22] = second compound 0.03 µM, first compound 1 µM
[23] = second compound 0.03 µM, first compound 3.16 µM
[24] = second compound 0.03 µM, first compound 10 µM
[25] = second compound 0.0949 µM, first compound 0.0316 µM
[26] = second compound 0.0949 µM, first compound 0.1 µM
[27] = second compound 0.0949 µM, first compound 0.316 µM
[28] = second compound 0.0949 µM, first compound 1 µM
[29] = second compound 0.0949 µM, first compound 3.16 µM
[30] = second compound 0.0949 µM, first compound 10 µM
[31] = second compound 0.3 µM, first compound 0.0316 µM
[32] = second compound 0.3 µM, first compound 0.1 µM
[33] = second compound 0.3 µM, first compound 0.316 µM
[34] = second compound 0.3 µM, first compound 1 µM
[35] = second compound 0.3 µM, first compound 3.16 µM
[36] = second compound 0.3 µM, first compound 10 µM
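Note: spheroids exposed to compound for 7 days before readout.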
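Throughout, for viability, T/C: 100% = DMSO vehicle control wells.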

CC(C)NCC(C(=O)N1CCN(c2ncnc3c2C(C)CC3O)CC1)c1ccc(Cl)cc1 (stereo unspecified) + CCn1c(-c2cccnc2C(C)OC)c2c3cc(ccc31)N1CCOC(CC(NC(=O)C(C(C)C)N(C)C(=O)C3(F)CCN(C(=O)C#CC(C)(C)N(C)C)CC3)C(=O)N3CCCC(N3)C(=O)OCC(C)(C)C2)C1
inactive: viability, T/C [1] 92% | viability, T/C [2] 98.4% | viability, T/C [3] 84.9% | viability, T/C [4] 92.2% | viability, T/C [5] 96.8% | viability, T/C [6] 56.7% | viability, T/C [7] 111% | viability, T/C [8] 73.6% | viability, T/C [9] 95.2% | viability, T/C [10] 81.6% | viability, T/C [11] 84.9% | viability, T/C [12] 55.5% | viability, T/C [13] 109% | viability, T/C [14] 70.8% | viability, T/C [15] 97.5% | viability, T/C [16] 79.2% | viability, T/C [17] 74.1% | viability, T/C [18] 56.4% | viability, T/C [19] 96% | viability, T/C [20] 91.2% | viability, T/C [21] 93.6% | viability, T/C [22] 79.2% | viability, T/C [23] 69.8% | viability, T/C [24] 72.7% | viability, T/C [25] 88.9% | viability, T/C [26] 87.5% | viability, T/C [27] 104% | viability, T/C [28] 97.7% | viability, T/C [29] 65.9% | viability, T/C [30] 59.9% | viability, T/C [31] 85.8% | viability, T/C [32] 88.7% | viability, T/C [33] 85.4% | viability, T/C [34] 74% | viability, T/C [35] 62.3% | viability, T/C [36] 52.3%
> 10 µM: IC50 (second compound 0.000949 µM) | IC50 (second compound 0.003 µM) | IC50 (second compound 0.00949 µM) | IC50 (second compound 0.03 µM) | IC50 (second compound 0.0949 µM) | IC50 (second compound 0.3 µM)

CC(C)n1nc(-c2ccc3oc(N)nc3c2)c2c(N)ncnc21 + CCn1c(-c2cccnc2C(C)OC)c2c3cc(ccc31)N1CCOC(CC(NC(=O)C(C(C)C)N(C)C(=O)C3(F)CCN(C(=O)C#CC(C)(C)N(C)C)CC3)C(=O)N3CCCC(N3)C(=O)OCC(C)(C)C2)C1
0.0273 µM: IC50 (second compound 0.03 µM)
0.0184 µM: IC50 (second compound 0.3 µM)
0.0252 µM: IC50 (second compound 0.00949 µM)
0.0448 µM: IC50 (second compound 0.003 µM)
inactive: viability, T/C (second compound 0.000949 µM, first compound 0.000316 µM) 120% | viability, T/C (second compound 0.000949 µM, first compound 0.001 µM) 86.6% | viability, T/C (second compound 0.000949 µM, first compound 0.00316 µM) 81.6% | viability, T/C (second compound 0.000949 µM, first compound 0.01 µM) 79.8% | viability, T/C [1] 62.2% | viability, T/C [2] 30.4% | viability, T/C (second compound 0.003 µM, first compound 0.000316 µM) 95.6% | viability, T/C (second compound 0.003 µM, first compound 0.001 µM) 80.3% | viability, T/C (second compound 0.003 µM, first compound 0.00316 µM) 76.2% | viability, T/C (second compound 0.003 µM, first compound 0.01 µM) 73% | viability, T/C [7] 61.6% | viability, T/C [8] 30.9% | viability, T/C (second compound 0.00949 µM, first compound 0.000316 µM) 102% | viability, T/C (second compound 0.00949 µM, first compound 0.001 µM) 77.9% | viability, T/C (second compound 0.00949 µM, first compound 0.00316 µM) 87.7% | viability, T/C (second compound 0.00949 µM, first compound 0.01 µM) 75% | viability, T/C [13] 43.4% | viability, T/C [14] 33.9% | viability, T/C (second compound 0.03 µM, first compound 0.000316 µM) 89.5% | viability, T/C (second compound 0.03 µM, first compound 0.001 µM) 87.6% | viability, T/C (second compound 0.03 µM, first compound 0.00316 µM) 92.4% | viability, T/C (second compound 0.03 µM, first compound 0.01 µM) 72.7% | viability, T/C [19] 47.6% | viability, T/C [20] 37.9% | viability, T/C (second compound 0.0949 µM, first compound 0.000316 µM) 76.1% | viability, T/C (second compound 0.0949 µM, first compound 0.001 µM) 78.8% | viability, T/C (second compound 0.0949 µM, first compound 0.00316 µM) 83.5% | viability, T/C (second compound 0.0949 µM, first compound 0.01 µM) 67.2% | viability, T/C [25] 39.5% | viability, T/C [26] 31.9% | viability, T/C (second compound 0.3 µM, first compound 0.000316 µM) 88% | viability, T/C (second compound 0.3 µM, first compound 0.001 µM) 82% | viability, T/C (second compound 0.3 µM, first compound 0.00316 µM) 70.5% | viability, T/C (second compound 0.3 µM, first compound 0.01 µM) 58.8% | viability, T/C [31] 42.4% | viability, T/C [32] 30%
0.0204 µM: IC50 (second compound 0.0949 µM)
0.0435 µM: IC50 (second compound 0.000949 µM)

C[C@@H](NC(=O)c1ncnc(N)c1Cl)c1ncc(C(=O)Nc2cc(C(F)(F)F)c(Cl)cn2)s1 + CCn1c(-c2cccnc2C(C)OC)c2c3cc(ccc31)N1CCOC(CC(NC(=O)C(C(C)C)N(C)C(=O)C3(F)CCN(C(=O)C#CC(C)(C)N(C)C)CC3)C(=O)N3CCCC(N3)C(=O)OCC(C)(C)C2)C1
inactive: viability, T/C [1] 126% | viability, T/C [2] 107% | viability, T/C [3] 112% | viability, T/C [4] 103% | viability, T/C [5] 107% | viability, T/C [6] 63.8% | viability, T/C [7] 106% | viability, T/C [8] 100% | viability, T/C [9] 106% | viability, T/C [10] 105% | viability, T/C [11] 97.3% | viability, T/C [12] 87.7% | viability, T/C [13] 113% | viability, T/C [14] 104% | viability, T/C [15] 95.1% | viability, T/C [16] 115% | viability, T/C [17] 91.8% | viability, T/C [18] 83.1% | viability, T/C [19] 105% | viability, T/C [20] 90.8% | viability, T/C [21] 109% | viability, T/C [22] 90.6% | viability, T/C [23] 77.3% | viability, T/C [24] 101% | viability, T/C [25] 94.9% | viability, T/C [26] 105% | viability, T/C [27] 90.7% | viability, T/C [28] 105% | viability, T/C [29] 69.8% | viability, T/C [30] 98.1% | viability, T/C [31] 90.8% | viability, T/C [32] 84.5% | viability, T/C [33] 108% | viability, T/C [34] 88.1% | viability, T/C [35] 85.5% | viability, T/C [36] 86.7%
> 10 µM: IC50 (second compound 0.000949 µM) | IC50 (second compound 0.003 µM) | IC50 (second compound 0.00949 µM) | IC50 (second compound 0.03 µM) | IC50 (second compound 0.0949 µM) | IC50 (second compound 0.3 µM)
